Test results: article PMC6273089, “Secondary Metabolites Produced by an Endophytic Fungus Pestalotiopsis sydowiana and Their 20S Proteasome Inhibitory Activities” (Molecules, 2016)

Target: human erythrocyte 20S proteasome (Homo sapiens, UniProt P28074)
Experiment: 20S proteasome inhibition assay (chymotrypsin-like activity, Suc-LLVY-AMC substrate)

SMILES | IC50 | 20S proteasome inhibitory activity (in words) (chymotrypsin-like activity)
COc1c(/C=C/C(C)(C)OC)ccc2c1C(=O)OCc1cc(C)cc(O)c1O2 [Compound 1, 3′-O-methyldehydroisopenicillide] | 30.5 ± 1.5 µM | –
C=C(C)[C@@H](O)[C@H](O)c1ccc2c(c1OC)C(=O)OCc1cc(C)cc(O)c1O2 [Compound 2, pestalotiollide B] | 18.5 ± 4.2 µM | –
C=C(C)[C@@H](O)[C@@H](O)c1ccc2c(c1OC)C(=O)OCc1cc(C)cc(O)c1O2 [Compound 3, pestalotiollide A] | 12.4 ± 1.1 µM | –
COc1c(/C=C/C(C)(C)O)ccc2c1C(=O)OCc1cc(C)cc(O)c1O2 [Compound 4, dehydroisopenicillide] | > 100 µM | –
COC1=CC(=O)OC(CO)C1 (centres unmarked) [Compound 5, 6-hydroxymethyl-4-methoxy-5,6-dihydro-2H-pyran-2-one] | 20.5 ± 2.3 µM | –
COc1cc(C(C)(O)C(C)O)oc(=O)c1 (centres unmarked) [Compound 6, pestalotiopyrone D] | > 100 µM | –
COc1cc(C(C)C(C)O)oc(=O)c1 (centres unmarked) [Compound 7, pestalotiopyrone E] | > 100 µM | –
C/C=C(/C)c1cc(OC)cc(=O)o1 [Compound 8, pestalotiopyrone G] | 1.2 ± 0.3 µM | strong activity
CCC[C@@H](O)[C@H](O)C1CC(OC)=CC(=O)O1 (some centres unmarked) [Compound 9, LL-P880b] | 8.9 ± 1.5 µM | –
CCC(O)C[C@H](O)C1CC(OC)=CC(=O)O1 (some centres unmarked) [Compound 10, photipyrone B] | 7.9 ± 1.8 µM | –
